Test results published in patent publication US8609653B2, “Azaindole compounds and methods for treating HIV” (priority 2011, dated 2013).

System: HIV
Test: MT4 assay: antiviral HIV activity in MT-4 cells
Format: cell-based
Conditions: Human immunodeficiency virus 1, MT4, 96 h, read-out: HIV MT4 Assay IC50 (μM), HTLV-1 transformed cell line MT-4; read-out 96 hours later with cell titer glo; 10 point dose response
Experimental: Antiviral HIV activity and cytotoxicity values for compounds of the invention from Table 1 were measured in parallel in the HTLV-1 transformed cell line MT-4 based on the method previously described (Hazen et al., 2007, In vitro antiviral activity of the novel, tyrosyl-based human immunodeficiency virus (HIV) type 1 protease inhibitor brecanavir (GW640385) in combination with other antiretrovirals and against a panel of protease inhibitor-resistant HIV (Hazen et al., “In vitro antiviral activity of the novel, tyrosyl-based human immunodeficiency virus (HIV) type 1 protease inhibitor brecanavir (GW640385) in combination with other antiretrovirals and against a panel of protease inhibitor-resistant HIV”, Antimicrob. Agents Chemother. 2007, 51: 3147-3154; and Pauwels et al., “Sensitive and rapid assay on MT-4 cells for the detection of antiviral compounds against the AIDS virus”, J. of Virological Methods 1987, 16: 171-185).
Luciferase activity was measured 96 hours later by adding a cell titer glo (Promega, Madison, Wis.). Percent inhibition of cell protection data was plotted relative to no compound control. Under the same condition, cytotoxicity of the compounds was determined using cell titer Glo™ (Promega, Madison, Wis.). IC50s were determined from a 10 point dose response curve using 3-4-fold serial dilution for each compound, which spans a concentration range>1000 fold.
These values are plotted against the molar compound concentrations using the standard four parameter logistic equation: y=((Vmax*x^n)/(K^n+x^n))+Y2
Y2=minimum y n=slope factor
Vmax=maximum y x=compound concentration [M]

SMILES | IC50 [µM]
Cc1ccc(-c2c(C(OC(C)(C)C)C(=O)O)c(C)nc3c2ccn3Cc2ccc(Cl)cc2F)cc1 (centres unmarked) [Example 23, 2-(tert-butoxy)-2-(1-(4-chloro-2-fluorobenzyl)-6-methyl-4-(p-tolyl)-1H-pyrrolo[2,3-b]pyridin-5-yl)acetic acid] | 0.27
Cc1ccc(-c2c(C(OC(C)(C)C)C(=O)O)c(C)nc3c2ccn3Cc2ccc(F)cc2F)cc1 (centres unmarked) [Example 24, 2-(tert-butoxy)-2-(1-(2,4-difluorobenzyl)-6-methyl-4-(p-tolyl)-1H-pyrrolo[2,3-b]pyridin-5-yl)acetic acid] | 0.125
Cc1ccc(-c2c(C(OC(C)(C)C)C(=O)O)c(C)nc3c2ccn3Cc2ccc(F)c(C)c2)cc1 (centres unmarked) [Example 25, 2-(tert-butoxy)-2-(1-(4-fluoro-3-methylbenzyl)-6-methyl-4-(p-tolyl)-1H-pyrrolo[2,3-b]pyridin-5-yl)acetic acid] | 0.14
Cc1ccc(-c2c(C(OC(C)(C)C)C(=O)O)c(C)nc3c2ccn3Cc2c(F)cc(F)cc2F)cc1 (centres unmarked) [Example 26, 2-(tert-butoxy)-2-(6-methyl-4-(p-tolyl)-1-(2,4,6-trifluorobenzyl)-1H-pyrrolo[2,3-b]pyridin-5-yl)acetic acid] | 0.12
Cc1nc2c(ccn2Cc2ccc(F)cc2)c(-c2ccc3c(c2)CCCO3)c1C(OC(C)(C)C)C(=O)O (centres unmarked) [Example 27, 2-(tert-butoxy)-2-(4-(chroman-6-yl)-1-(4-fluorobenzyl)-6-methyl-1H-pyrrolo[2,3-b]pyridin-5-yl)acetic acid] | 0.08
Cc1nc2c(ccn2Cc2ccc(F)c(F)c2)c(-c2ccc3c(c2)CCCO3)c1[C@@H](OC(C)(C)C)C(=O)O [Example 28, (R)-2-(tert-butoxy)-2-(4-(chroman-6-yl)-1-(3,4-difluorobenzyl)-6-methyl-1H-pyrrolo[2,3-b]pyridin-5-yl)acetic acid] | 6.56
Cc1nc2c(ccn2Cc2ccc(F)c(F)c2)c(-c2ccc3c(c2)CCCO3)c1[C@H](OC(C)(C)C)C(=O)O [Example 29, (S)-2-(tert-butoxy)-2-(4-(chroman-6-yl)-1-(3,4-difluorobenzyl)-6-methyl-1H-pyrrolo[2,3-b]pyridin-5-yl)acetic acid] | 0.024
Cc1cc(Cn2ccc3c(-c4ccc5c(c4)CCCO5)c(C(OC(C)(C)C)C(=O)O)c(C)nc32)ccc1F (centres unmarked) [Example 30, 2-(tert-butoxy)-2-(4-(chroman-6-yl)-1-(4-fluoro-3-methylbenzyl)-6-methyl-1H-pyrrolo[2,3-b]pyridin-5-yl)acetic acid] | 0.07
Cc1nc2c(ccn2Cc2ccc(F)cc2Cl)c(-c2ccc3c(c2)CCCO3)c1C(OC(C)(C)C)C(=O)O (centres unmarked) [Example 31, 2-(tert-butoxy)-2-(1-(2-chloro-4-fluorobenzyl)-4-(chroman-6-yl)-6-methyl-1H-pyrrolo[2,3-b]pyridin-5-yl)acetic acid] | 0.04
Cc1nc2c(ccn2Cc2cc(F)c(F)c(F)c2)c(-c2ccc3c(c2)CCCO3)c1C(OC(C)(C)C)C(=O)O (centres unmarked) [Example 32, 2-(tert-butoxy)-2-(4-(chroman-6-yl)-6-methyl-1-(3,4,5-trifluorobenzyl)-1H-pyrrolo[2,3-b]pyridin-5-yl)acetic acid] | 0.1
Cc1nc2c(ccn2Cc2cc(F)ccc2F)c(-c2ccc3c(c2)CCCO3)c1C(OC(C)(C)C)C(=O)O (centres unmarked) [Example 33, 2-(tert-butoxy)-2-(4-(chroman-6-yl)-1-(2,5-difluorobenzyl)-6-methyl-1H-pyrrolo[2,3-b]pyridin-5-yl)acetic acid] | 0.096
Cc1nc2c(ccn2Cc2cccc(F)c2F)c(-c2ccc3c(c2)CCCO3)c1C(OC(C)(C)C)C(=O)O (centres unmarked) [Example 34, 2-(tert-butoxy)-2-(4-(chroman-6-yl)-1-(2,3-difluorobenzyl)-6-methyl-1H-pyrrolo[2,3-b]pyridin-5-yl)acetic acid] | 0.06
Cc1ccc(Cn2ccc3c(-c4ccc5c(c4)CCCO5)c(C(OC(C)(C)C)C(=O)O)c(C)nc32)cc1F (centres unmarked) [Example 35, 2-(tert-butoxy)-2-(4-(chroman-6-yl)-1-(3-fluoro-4-methylbenzyl)-6-methyl-1H-pyrrolo[2,3-b]pyridin-5-yl)acetic acid] | 0.42
Cc1ccc(-c2c([C@@H](OC(C)(C)C)C(=O)O)c(C)nc3c2ccn3Cc2ccc(F)cc2F)cc1 [Example 36, (R)-2-(tert-butoxy)-2-(1-(2,4-difluorobenzyl)-6-methyl-4-(p-tolyl)-1H-pyrrolo[2,3-b]pyridin-5-yl)acetic acid] | 50
Cc1ccc(-c2c([C@H](OC(C)(C)C)C(=O)O)c(C)nc3c2ccn3Cc2ccc(F)cc2F)cc1 [Example 37, (S)-2-(tert-butoxy)-2-(1-(2,4-difluorobenzyl)-6-methyl-4-(p-tolyl)-1H-pyrrolo[2,3-b]pyridin-5-yl)acetic acid] | 0.07
COc1ccc(Cn2ccc3c(-c4ccc5c(c4)CCCO5)c(C(OC(C)(C)C)C(=O)O)c(C)nc32)cc1 (centres unmarked) [Example 38, 2-(tert-butoxy)-2-(4-(chroman-6-yl)-1-(4-methoxybenzyl)-6-methyl-1H-pyrrolo[2,3-b]pyridin-5-yl)acetic acid] | 0.12
Cc1nc2c(ccn2Cc2ccccc2F)c(-c2ccc3c(c2)CCCO3)c1C(OC(C)(C)C)C(=O)O (centres unmarked) [Example 39, 2-(tert-butoxy)-2-(4-(chroman-6-yl)-1-(2-fluorobenzyl)-6-methyl-1H-pyrrolo[2,3-b]pyridin-5-yl)acetic acid] | 0.068
Cc1nc2c(ccn2Cc2cccc(Cl)c2F)c(-c2ccc3c(c2)CCCO3)c1C(OC(C)(C)C)C(=O)O (centres unmarked) [Example 40, 2-(tert-butoxy)-2-(1-(3-chloro-2-fluorobenzyl)-4-(chroman-6-yl)-6-methyl-1H-pyrrolo[2,3-b]pyridin-5-yl)acetic acid] | 0.125
Cc1nc2c(ccn2Cc2ccc(C(F)(F)F)o2)c(-c2ccc3c(c2)CCCO3)c1C(OC(C)(C)C)C(=O)O (centres unmarked) [Example 41] | 0.1
Cc1nc2c(ccn2CCc2ccc(F)cc2)c(-c2ccc3c(c2)CCCO3)c1C(OC(C)(C)C)C(=O)O (centres unmarked) [Example 42, 2-(tert-butoxy)-2-(4-(chroman-6-yl)-1-(4-fluorophenethyl)-6-methyl-1H-pyrrolo[2,3-b]pyridin-5-yl)acetic acid] | 0.58
Cc1nc2c(ccn2Cc2ccccc2)c(-c2ccc3c(c2)CCCO3)c1C(OC(C)(C)C)C(=O)O (centres unmarked) [Example 43, 2-(1-benzyl-4-(chroman-6-yl)-6-methyl-1H-pyrrolo[2,3-b]pyridin-5-yl)-2-(tert-butoxy)acetic acid] | 0.084
Cc1nc2c(ccn2Cc2c(F)cc(F)cc2F)c(-c2ccc3c(c2)CCCO3)c1C(OC(C)(C)C)C(=O)O (centres unmarked) [Example 44, 2-(tert-butoxy)-2-(4-(chroman-6-yl)-6-methyl-1-(2,4,6-trifluorobenzyl)-1H-pyrrolo[2,3-b]pyridin-5-yl)acetic acid] | 0.053
COc1ccc(Cn2ccc3c(-c4ccc5c(c4)CCCO5)c(C(OC(C)(C)C)C(=O)O)c(C)nc32)cc1F (centres unmarked) [Example 45, 2-(tert-butoxy)-2-(4-(chroman-6-yl)-1-(3-fluoro-4-methoxybenzyl)-6-methyl-1H-pyrrolo[2,3-b]pyridin-5-yl)acetic acid] | 0.055
COc1ccc(F)c(F)c1Cn1ccc2c(-c3ccc(C)cc3)c(C(OC(C)(C)C)C(=O)O)c(C)nc21 (centres unmarked) [Example 46, 2-(tert-butoxy)-2-(1-(2,3-difluoro-6-methoxybenzyl)-6-methyl-4-(p-tolyl)-1H-pyrrolo[2,3-b]pyridin-5-yl)acetic acid] | 0.1
Cc1nc2c(ccn2Cc2ccc(F)cc2Cl)c(-c2ccc3c(c2)CCCO3)c1[C@@H](OC(C)(C)C)C(=O)O [Example 47, (R)-2-(tert-butoxy)-2-(1-(2-chloro-4-fluorobenzyl)-4-(chroman-6-yl)-6-methyl-1H-pyrrolo[2,3-b]pyridin-5-yl)acetic acid] | 50
Cc1nc2c(ccn2Cc2ccc(F)cc2Cl)c(-c2ccc3c(c2)CCCO3)c1[C@H](OC(C)(C)C)C(=O)O [Example 48, (S)-2-(tert-butoxy)-2-(1-(2-chloro-4-fluorobenzyl)-4-(chroman-6-yl)-6-methyl-1H-pyrrolo[2,3-b]pyridin-5-yl)acetic acid] | 0.03
Cc1ccc(-c2c(C(OC(C)(C)C)C(=O)O)c(C)nc3c2ccn3Cc2c(Cl)ccc(F)c2F)cc1 (centres unmarked) [Example 49, 2-(tert-butoxy)-2-(1-(6-chloro-2,3-difluorobenzyl)-6-methyl-4-(p-tolyl)-1H-pyrrolo[2,3-b]pyridin-5-yl)acetic acid] | 0.123
Cc1nc2c(ccn2Cc2c(Cl)cccc2Cl)c(-c2ccc3c(c2)CCCO3)c1C(OC(C)(C)C)C(=O)O (centres unmarked) [Example 50, 2-(tert-butoxy)-2-(4-(chroman-6-yl)-1-(2,6-dichlorobenzyl)-6-methyl-1H-pyrrolo[2,3-b]pyridin-5-yl)acetic acid] | 0.035
Cc1nc2c(ccn2Cc2c(F)cccc2F)c(-c2ccc3c(c2)CCCO3)c1C(OC(C)(C)C)C(=O)O (centres unmarked) [Example 51, 2-(tert-butoxy)-2-(4-(chroman-6-yl)-1-(2,6-difluorobenzyl)-6-methyl-1H-pyrrolo[2,3-b]pyridin-5-yl)acetic acid] | 0.09
